Experimental data from ChEMBL document CHEMBL1201862, “PubChem BioAssay data set” (2004).
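Results reflect a 48-hour exposure of cells in 96-well plates to compound at five concentrations. The concentration for 50% growth inhibition is given as GI50.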 Activity calls are given as the source filed them. Cut-off read from the data, not from the text of the source: active = GI50 up to about 1.1 µM and inactive = higher.

Legend:
Assay in all cases: growth of human tumour cells (NCI), 48 h
NCI-H522 = system: NCI-H522
IGROV-1 = system: IGROV-1
KM12 = system: KM12
SK-MEL-28 = system: SK-MEL-28
ACHN = system: ACHN
U-251 = system: U-251
Malme-3M = system: Malme-3M
SNB-75 = system: SNB-75
UACC-62 = system: UACC-62
OVCAR-5 = system: OVCAR-5
NCI-H460 = system: NCI-H460
SK-MEL-2 = system: SK-MEL-2
SK-MEL-5 = system: SK-MEL-5
A498 = system: A498
HOP-62 = system: HOP-62
OVCAR-4 = system: OVCAR-4
COLO 205 = system: COLO 205
A549 = system: A549
NCI-H226 = system: NCI-H226
MCF7 = system: MCF7

SMILES	GI50 (NCI-H522)	GI50 (IGROV-1)	GI50 (KM12)	GI50 (SK-MEL-28)	GI50 (ACHN)	GI50 (U-251)	GI50 (Malme-3M)	GI50 (SNB-75)	GI50 (UACC-62)	GI50 (OVCAR-5)	GI50 (NCI-H460)	GI50 (SK-MEL-2)	GI50 (SK-MEL-5)	GI50 (A498)	GI50 (HOP-62)	GI50 (OVCAR-4)	GI50 (COLO 205)	GI50 (A549)	GI50 (NCI-H226)	GI50 (MCF7)
CC(=O)OC1C(=O)C(O)C(C)OC1O[C@@H]1C[C@@]2(C)[C@@H]3CC=C4[C@@H](C[C@H](O)C(=O)C4(C)C)[C@]3(C)C(=O)C[C@]2(C)[C@H]1[C@@](C)(O)C(=O)/C=C/C(C)(C)O (stereo partly specified)	0.975 µM (active)	2.6 µM (inactive)	> 7.53 µM (inactive)	0.447 µM (active)	2.74 µM (inactive)	1.16 µM (inactive)	1.04 µM (active)	0.71 µM (active)	3.15 µM (inactive)	7.29 µM (inactive)	1.98 µM (inactive)	0.748 µM (active)	1.47 µM (inactive)	0.577 µM (active)	2.96 µM (inactive)	1.02 µM (active)	0.885 µM (active)	2.64 µM (inactive)	0.693 µM (active)	–
COc1ccc(/C=C2\S/C(=N/Nc3nc(-c4ccccc4)cs3)NC2=O)cc1OC	18.5 µM (inactive)	12.6 µM (inactive)	24.5 µM (inactive)	32.7 µM (inactive)	24.7 µM (inactive)	26.3 µM (inactive)	–	22.8 µM (inactive)	23.6 µM (inactive)	23.4 µM (inactive)	23 µM (inactive)	19.1 µM (inactive)	15.5 µM (inactive)	–	22.1 µM (inactive)	27.2 µM (inactive)	35.6 µM (inactive)	20.9 µM (inactive)	–	19.2 µM (inactive)
O=C(Nc1ccc(C(F)(F)F)cc1[N+](=O)[O-])C(=O)C1NC(=S)NC1=O (stereo unspecified)	> 100 µM (inactive)	> 100 µM (inactive)	> 100 µM (inactive)	> 100 µM (inactive)	> 100 µM (inactive)	> 100 µM (inactive)	> 100 µM (inactive)	26.6 µM (inactive)	> 100 µM (inactive)	> 100 µM (inactive)	> 100 µM (inactive)	> 100 µM (inactive)	> 100 µM (inactive)	53 µM (inactive)	> 100 µM (inactive)	> 100 µM (inactive)	13.5 µM (inactive)	> 100 µM (inactive)	11 µM (inactive)	–
O=C1c2ccc3c4ccccc4n(Cc4ccccc4)c3c2C(=O)N1c1ccccc1	2.62 µM (inactive)	17.8 µM (inactive)	15.5 µM (inactive)	17 µM (inactive)	> 35.7 µM (inactive)	15.8 µM (inactive)	16.2 µM (inactive)	13.8 µM (inactive)	17.3 µM (inactive)	17.6 µM (inactive)	58.7 µM (inactive)	22.9 µM (inactive)	16.1 µM (inactive)	25.1 µM (inactive)	> 36.9 µM (inactive)	8.3 µM (inactive)	3.52 µM (inactive)	17.3 µM (inactive)	12.8 µM (inactive)	–
CN(/N=C/c1ccnc2ccccc12)c1c([N+](=O)[O-])cc([N+](=O)[O-])cc1[N+](=O)[O-]	27.6 µM (inactive)	> 100 µM (inactive)	> 100 µM (inactive)	60.5 µM (inactive)	72.6 µM (inactive)	88.3 µM (inactive)	31.5 µM (inactive)	> 100 µM (inactive)	> 100 µM (inactive)	> 100 µM (inactive)	> 100 µM (inactive)	24.4 µM (inactive)	34.2 µM (inactive)	48.8 µM (inactive)	88.3 µM (inactive)	53.7 µM (inactive)	> 100 µM (inactive)	94.8 µM (inactive)	71.4 µM (inactive)	–
C[C@]12CCc3nonc3C1CC[C@@H]1C2CC[C@@]2(C)C1CC[C@@H]2O (stereo partly specified)	> 100 µM (inactive)	> 100 µM (inactive)	> 100 µM (inactive)	> 100 µM (inactive)	> 100 µM (inactive)	> 100 µM (inactive)	> 100 µM (inactive)	86.7 µM (inactive)	> 100 µM (inactive)	> 100 µM (inactive)	> 100 µM (inactive)	> 100 µM (inactive)	> 100 µM (inactive)	> 100 µM (inactive)	> 100 µM (inactive)	> 100 µM (inactive)	> 100 µM (inactive)	> 100 µM (inactive)	> 100 µM (inactive)	–
C=C1C(=O)OC2/C=C(\C)C(O)/C=C\C(C)(O)CC(OC(=O)/C(C)=C/C)C12 (stereo unspecified)	12.8 µM (inactive)	> 100 µM (inactive)	40.6 µM (inactive)	18.3 µM (inactive)	22.4 µM (inactive)	> 67.8 µM (inactive)	21.4 µM (inactive)	> 100 µM (inactive)	17.1 µM (inactive)	> 100 µM (inactive)	> 61 µM (inactive)	19.7 µM (inactive)	51.3 µM (inactive)	> 100 µM (inactive)	> 100 µM (inactive)	44.6 µM (inactive)	15.3 µM (inactive)	> 100 µM (inactive)	> 100 µM (inactive)	–
